Source: US20230095836A1, “SUBSTITUTED 5,6-DIPHENYL-3(2H)-PYRIDAZINONES FOR USE AS FUNGICIDES” (FMC Corporation, priority 2020, published 2023)

Key:
Alternaria solani = assay: Test F: test suspension sprayed on tomato seedlings, inoculated next day with Alternaria solani (tomato early blight); visual disease rating (100 = 100% disease control, 0 = no control; dash = not tested); assay type: in vivo; conditions: 50 ppm
How it was run: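 Tomato seedlings sprayed to run-off with test suspension, inoculated next day with A. solani spores, held saturated at 27° C. for 48 h, then 20° C. for 3 days. Disease visually rated as % control relative to untreated controls.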

Botrytis cinerea = assay: Test E: test suspension sprayed on tomato seedlings, inoculated next day with Botrytis cinerea (tomato Botrytis); visual disease rating (100 = 100% disease control, 0 = no control; dash = not tested); assay type: in vivo; conditions: 50 ppm
How it was run: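 Tomato seedlings were sprayed to run-off and inoculated next day with Botrytis cinerea spores. They were held 48 h at 20° C in saturated humidity, then 3 days at 24° C. Disease control was rated visually against controls (100 = full, 0 = none).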

Phakopsora pachyrhizi = assay: Test D: test solution sprayed on soybean seedlings, inoculated next day with Phakopsora pachyrhizi (Asian soybean rust); visual disease rating (100 = 100% disease control, 0 = no control; dash = not tested); assay type: in vivo; conditions: 50 ppm
How it was run: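 Compounds predissolved in acetone (3% of final volume), suspended at ppm concentrations in 50/50 acetone/water with 250 ppm PEG400, sprayed to run-off on soybean seedlings. Inoculated next day with spores, 24 h saturated atmosphere at 22 °C, then 8 days growth chamber at 22 °C; visual rating, 100 = full control.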

[1] = tested on: Blumeria graminis f. sp. tritici; assay: Test C: test suspension sprayed on wheat seedlings, inoculated next day with Blumeria graminis f. sp. tritici (wheat powdery mildew); visual disease rating (100 = 100% disease control, 0 = no control; dash = not tested); assay type: in vivo; conditions: 50 ppm
How it was run: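 Wheat seedlings were sprayed to run-off with test suspension, then dusted next day with Blumeria graminis f. sp. tritici spores. After 8 days at 20 °C in a growth chamber, disease was rated visually as percent control relative to untreated controls.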

Zymoseptoria tritici = assay: Test A: test solution sprayed on wheat seedlings, inoculated next day with Zymoseptoria tritici (wheat leaf blotch); disease rating (100 = 100% disease control, 0 = no control; dash = not tested); assay type: in vivo; conditions: 50 ppm
How it was run: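 Wheat seedlings sprayed to run-off with test solution, inoculated next day with Z. tritici spores, held 48 h at 24° C in saturated atmosphere, then 17 days at 20° C before rating. Scores are % disease control relative to controls (100 = full control, 0 = none).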

[2] = tested on: Puccinia recondita f. sp. tritici; assay: Test B: test solution sprayed on wheat seedlings, inoculated next day with Puccinia recondita f. sp. tritici (wheat leaf rust); disease rating (100 = 100% disease control, 0 = no control; dash = not tested); assay type: in vivo; conditions: 50 ppm
From the text: The resulting test suspensions were then used in Tests A-F. The test solution was sprayed to the point of run-off on wheat seedlings. […] A rating of 100 indicates 100% disease control and a rating of 0 indicates no disease control (relative to the controls). A dash (—) indicates the compound was not tested.

Compound | pest or weed control at 50 ppm (Alternaria solani) | pest or weed control at 50 ppm (Botrytis cinerea) | pest or weed control at 50 ppm (Phakopsora pachyrhizi) | melting point | pest or weed control at 50 ppm [1] | pest or weed control at 50 ppm (Zymoseptoria tritici) | pest or weed control at 50 ppm [2]
COc1cc(OC)c(Cl)c(-c2nn(C)c(=O)c(Cl)c2-c2ccc(F)cc2Cl)c1 [Compound 58, 4-chloro-6-(2-chloro-3,5-dimethoxyphenyl)-5-(2-chloro-4-fluorophenyl)-2-methyl-3(2H)-pyridazinone] | 100% | 99% | 100% | 85 to 90 °C | 100% | 100% | 100%
COc1cc(OC)c(Cl)c(-c2nn(C)c(=O)c(C)c2-c2ccc(F)cc2Cl)c1 [Compound 66, 6-(2-chloro-3,5-dimethoxyphenyl)-5-(2-chloro-4-fluorophenyl)-2,4-dimethyl-3(2H)-pyridazinone] | 100% | 100% | 100% | 140 to 143 °C | 100% | 100% | 100%
COc1ccc(Cl)c(-c2nn(C)c(=O)c(C)c2-c2c(F)cccc2F)c1 [Compound 68, 6-(2-chloro-5-methoxyphenyl)-5-(2,6-difluorophenyl)-2,4-dimethyl-3(2H)-pyridazinone] | 100% | 99% | 100% | 135 to 138 °C | 100% | 100% | 100%
COc1cc(OC)c(Cl)c(-c2nn(C)c(=O)c(OC)c2-c2ccc(F)cc2Cl)c1 [Compound 80, 6-(2-chloro-3,5-dimethoxyphenyl)-5-(2-chloro-4-fluorophenyl)-4-methoxy-2-methyl-3(2H)-pyridazinone] | 100% | 99% | 100% | 130 to 133 °C | 100% | 100% | 100%
COc1ccc(Cl)c(-c2nn(C)c(=O)c(Cl)c2-c2ccc(F)cc2Cl)c1 [Compound 83, 4-chloro-5-(2-chloro-4-fluorophenyl)-6-(2-chloro-5-methoxyphenyl)-2-methyl-3(2H)-pyridazinone] | 100% | 92% | 100% | 165 to 168 °C | 99% | 100% | 100%
COc1ccc(Cl)c(-c2nn(C)c(=O)c(C)c2-c2ccc(F)cc2Cl)c1 [Compound 102, 5-(2-chloro-4-fluorophenyl)-6-(2-chloro-5-methoxyphenyl)-2,4-dimethyl-3(2H)-pyridazinone] | 100% | 98% | 100% | 149 to 150 °C | 100% | 100% | 100%
